Assays:
FVB male mice = assay: Spinal nerve ligation (SNL) mouse model of neuropathic pain, intrathecal administration, von Frey tactile allodynia test; assay type: in vivo; details: for 50% paw withdrawal threshold, Mean, Day 0 Postoperative Baseline: group baseline after SNL injury, before first injection; for 50% paw withdrawal threshold, Mean, Day 0 Postoperative Baseline / 50% paw withdrawal threshold, Mean, Day(-2) Pre-operative Baseline: von Frey; for 50% paw withdrawal threshold, Mean, Day(-2) Pre-operative Baseline: group baseline prior to SNL injury and before any treatment; for 50% paw withdrawal threshold, Mean, Day 5 / 50% paw withdrawal threshold, Mean, Day 7 / 50% paw withdrawal threshold, Mean, Day 1: i.t. 10 µl/mouse daily injections day 1-6; for 50% paw withdrawal threshold, Mean, Day 1: testing 2hr after first i.t. injection
Excerpt: To measure the neuropathic pain inhibiting affects of the MMP inhibitors of the present invention, the spinal nerve ligation (SNL) mouse model was run on a select number of compounds. This model which began with the work of Bennet and coworkers (Bennet, G.J. et al. Pain, 33, (1988), 87-107) and was optimized by Kim and Chung (Kim, S.H.; Chung, J.M. Pain, 50, (1992), 355-363) entails first, under magnification, the removal of one-third of the transverse process and then identifying and then dissecting free the L5 spinal nerve from the adjacent L4 spinal nerve in the mouse. The L5 spinal nerve is then tightly ligated using 6.0 silk suture. The nerve injury leads to hyperalgesia which manifests itself by enhanced responses to mechanical, heat and/or cooling stimuli. In this case, mechanical hyperalgesia is tested via Von Frey monofilaments in which filaments of varying thicknesses and bending force are individually applied to the plantar surface of the foot of the mouse. The threshold force necessary for paw withdrawal decreases dramatically after the nerve surgery. Potent pain inhibitors will reverse this affect resulting in greater force needing to be applied to cause the rodent paw to withdrawal.
Following preoperative baseline (Day -2) paw threshold measurement, FVB male mice were subjected to SNL injury (Day -1). The next day (Day 0) after SNL surgery, the animals were tested for post-operative baseline threshold measurements for mechanical allodynia; and the animals were then randomly assigned to one of 3 treatment groups (see Table 3). Over the course of the study, paw withdrawal threshold of these animals was measured in response to mechanical stimulation using the von Frey Monofilament Test.
To avoid systemic effects of the MMP inhibitors, the MMP inhibitors of the present invention were delivered into the cerebral spinal fluid (CSF) space around lumbosacral spinal cord via intrathecal (i.t.) administration, with the idea of targeting MMPs in the DRG, spinal cord, and spinal CSF. Intrathecal MMP inhibitor administration could then target not only spinal cord cells but also DRG cells. Each intrathecal (i.t.) injection was carried out according to the technique of Hylden and Wilcox (Hylden JL, Wilcox GL. Eur. J Pharmacol., 67, (1980), 313-6) 5.2 mg of each of the MMP inhibitors were first dissolved in 140 microliters of DMSO and then put into 1260 microliters of 0.5% hydroxypropyl cellulose (HPC) in water to make a fine suspension composed of compound in 10%DMSO-0.5% hydroxypropyl cellulose. 10 microliters of the mixture was injected into the intrathecal space of male FVB mice (weighing 22-25 grams each and obtained from the Jackson Laboratories, Bar Harbor, Me), by lumbar puncture in a volume of 10 µl/mouse using a Hamilton microsyringe via a 30 gauge needle inserted between lumbar vertebrae 5 and 6. In brief, each animal was held firmly by the pelvic girdle in one hand, while the needle was inserted into the tissue on the right side of the L5 or L6 spinous process. The needle was moved forward and slipped into the groove between the spinous process and transverse process and gently moved forward to the intervertebral space at ∼10° angle. As the needle was inserted (∼0.5 cm) within the vertebral column a tail flick was evident, and the solution was then injected. Table 3. Animal i.t. Treatment Groups & Compounds Tested
Tactile Allodynia Test. Mechanical allodynia was measured using the calibrated von Frey filaments (Semmes-Weinstein monofilaments; Stoelting, Wood Dale, IL, U.S.A.). The plantar surface of the left injured paw of each animal was tested as described by Chaplan et al. (Journal of Neuroscience Methods, 53, (1994), 55-63). […]

[1] = molecular target: Catalytic domain of MMP-9 (human recombinant) (Homo sapiens, UniProt P14780); assay: biochemical; details: read-out: Average Percent Inhibition (MMP-9)
[2] = In-vitro microsomal stability in human microsomes; assay type: in vitro ADME; details: 1 µM compound, human microsomes 0.3 mg/mL
Description: Human and mouse microsomal stability was determined for select compounds following the method of Houston (Houston, JB; Biochem. Pharmacol. 47, (1994),1469).
1 µM concentration of compound and seperate human and mouse microsomes (0.3 mg/mL, BD bioscience) were used in the in-vitro assay. To ensure proper energy supply for microsomal degradation of compound, an energy regenerating system comprised of 100 mM potassium phosphate, 2mM NADPH, 3mM MgCl2, pH = 7.4. and the microsomal protein is added to each sample and the resulting suspension is then incubated in duplicate for 60 min at 37° C. in a rotary shaker. A control is run for each test agent in duplicate omitting NADPH to detect NADPH-free degradation. At T=0 and T= 60 min., an aliquot is removed from each experimental and control reaction and then mixed with an equal volume of ice-cold Stop Solution (consisting of 0.3% acetic acid in acetonitrile containing haloperidol and diclofenac as internal standards). […] The samples are then centrifuged to remove precipitated protein, and the supernatants are then analyzed by LC-MS/MS to determine the percentage of compound remaining. […] After separation on a C18 reverse phase HPLC column (Agilent, Waters, or equivalent) using an acetonitrile-water gradient system, peaks were analyzed by mass spectrometry (MS) using ESI ionization in MRM mode.

MMP-2 = assay: Gelatin zymography of mouse spinal cord for MMP-2 rebound effect; assay type: in vivo, mice

Catalytic domain of MMP-9 (human recombinant), sequence (P14780 107-444 limits assumed): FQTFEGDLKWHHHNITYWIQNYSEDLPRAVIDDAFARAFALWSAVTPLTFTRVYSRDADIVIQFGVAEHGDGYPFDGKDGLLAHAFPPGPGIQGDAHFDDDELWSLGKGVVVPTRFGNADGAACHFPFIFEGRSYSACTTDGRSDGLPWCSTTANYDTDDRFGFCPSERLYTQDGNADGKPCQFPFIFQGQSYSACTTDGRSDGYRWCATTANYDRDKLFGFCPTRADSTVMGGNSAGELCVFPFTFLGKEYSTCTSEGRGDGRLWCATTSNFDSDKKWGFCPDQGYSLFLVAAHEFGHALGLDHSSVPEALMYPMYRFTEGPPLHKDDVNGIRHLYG

| inhibition at 1 µM [1] [%] | Mean Remaining Parent with NADPH (%) ([2]; 60 min at 37° C) | Mean Remaining Parent without NADPH (%) ([2]; control omitting NADPH, at T = 60 minutes) | Compound | 50% paw withdrawal threshold, Mean, Day 0 Postoperative Baseline (FVB male mice) [g] | 50% paw withdrawal threshold, Mean, Day(-2) Pre-operative Baseline (FVB male mice) [g] | 50% paw withdrawal threshold, Mean, Day 5 (FVB male mice) [g] | 50% paw withdrawal threshold, Mean, Day 7 (FVB male mice) [g] | 50% paw withdrawal threshold, Mean, Day 1 (FVB male mice) [g] | reversal of allodynia (FVB male mice; i.t. administration, as compared to vehicle and compound #5) | MMP-2 levels in spinal cord (MMP-2; 0.5 and 2 hours after naloxone precipitated withdrawal and cessation of compound administration, versus control) | MMP-2 rebound effect due to discontinuation (MMP-2; after discontinuation of compound in naloxone precipitated withdrawal model) |
| --- | --- | --- | --- | --- | --- | --- | --- | --- | --- | --- | --- |
| 82 | 86 | 89 | Cc1ccc(C#Cc2ccc(S(=O)(=O)N[C@H](Cc3c[nH]c4ccccc34)C(=O)O)s2)cc1 [Compound 5, (R)-3-(1H-Indol-3-yl)-2-(5-p-tolylethynyl-thiophene-2-sulfonylamino)-propionic acid] | 0.050 | 1.265 | 0.079 | 0.190 | 0.098 |  |  |  |
|  |  |  | [2H]C([2H])([2H])c1ccc(C#Cc2ccc(S(=O)(=O)N[C@H](Cc3c[nH]c4ccccc34)C(=O)O)s2)cc1 [Compound 10, (R)-3-(1H-Indol-3-yl)-2-[5-(4-trideuteromethyl-phenylethynyl)-thiophene-2-sulfonylamino]-propionic acid-(D3, 98%)] | 0.077 | 1.268 | 0.320 | 1.024 | 0.321 | almost complete reversal of allodynia | stayed the same or were slightly lower than the control | No evidence of a MMP-2 and/or MMP-9 rebound effect |
